Source: patent US20170197996A1, “Cholinesterase Inhibitors” (priority 2012, published 2017)

System: acetylcholinesterase
Type: in vivo, rat
Conditions: Trials C, D; 0.030 mg/Kg dose 10 min prior to tracer; FIG. 11, FIG. 12 vs FIG. 8

CCOP(=O)(OCC)Oc1ccc([N+](=O)[O-])cc1 [paraoxon]
reduction of tracer [^18F]-6 SUV radioactivity signals across all brain ROIs: significant reduction of SUV radioactivity signals
